According to patent publication US6972172B2, “Combinatorial complex carbohydrate libraries and methods for the manufacture and uses thereof” (Glycominds Ltd., priority 2000, dated 2005):

Experiments:
[1] = activity of the polysaccharide as cited from the reference in Table 15; cited from earlier work
TGP lectin = TGP lectin binding assay; design: species or system Tereagonolobus purpureas; conditions: Library 1 strip after the ERs sequence; peroxidase-conjugated lectin, O.D. 450 nm; versus control strip without nucleotide sugar
Description: TGP: 100 μl of 20 μg/ml TGP lectin conjugated to peroxidase (SIGMA L-1508, 10 peroxidase units per mg protein) was added to the plates and incubated for one hour at 25° C. in TBS containing 1% BSA and 10 millimolar of MnCl2 and of CaCl2. The wells were washed three times with 200 μl TBST with a last wash consisting of a 15 minutes soak. 100 μl of fresh peroxidase substrate solution was added, and an hour later the O.D. of the solution (at 450 nm) was determined. When the above described binding assays were performed on covalently coupled monosaccharide acceptors, such as the case with Covalink NH plates, the TBS incubation solution was replaced with TBST and the wash steps were performed using high ionic strength buffer instead of TBST.

[2] = system: anti-Sialyl Lewis X IgM from mouse; assay: Anti-Sialyl Lewis X antibody binding assay; conditions: Library 1 strip after the ERs sequence, anti-mouse IgM-biotin, avidin-peroxidase, O.D. 450 nm, versus control strip without nucleotide sugar
Description: Anti-Sialyl Lewis X: 100 μl of 10 μg/ml anti-Sialyl Lewis X IgM from mouse (Calbiochem 565953) was added to the plates and incubated for 1 hour at 25° C. in TBS containing 1% BSA. The wells were washed 3 times with 200 μl TBST with a last wash consisting of a 15 minutes soak, following which, a solution of TBS containing 1% BSA and 100 μl of 5 μg/ml goat anti-mouse IgM conjugated to biotin (SIGMA b-9265) was added to the plates and incubated for one hour at 25° C. The wells were washed 3 times with […] with a last wash consisting of a 15 minutes soak, followed by incubation with […] containing 1% BSA and 5 μg/ml avidin conjugated to peroxidase (SIGMA A-3151, 40 peroxidase units per mg protein) for 1 hour at 25° C. The wells were washed three times with 200 μl TBST with a last wash consisting of a 15 minutes soak. 100 μl of fresh peroxidase substrate solution was added, and an hour later the O.D. of the solution (at 450 nm) was determined.
When the above described binding assays were performed on covalently coupled monosaccharide acceptors, such as the case with Covalink NH plates, the TBS incubation solution was replaced with TBST and the wash steps were performed using high ionic strength buffer instead of TBST.

## Fucoidan
[1]
  Activity: anti coagulant

## Gal β 1,4 (Fuc α 1,3)GlcNAc-S [EM 5]
TGP lectin
  TGP binding: increase

## NeuAC α 2,3 Gal β 1,4 (Fuc α 1,3)GlcNAc [EM 6]
[2]
  IgM Anti-Sialyl Lewis X binding: increase
